Laboratory results taken from ChEMBL document CHEMBL3045625, “Antifeedant properties and chemotaxonomic implications of sesquiterpene lactones and syringin from Rhaponticum pulchrum” (2006).

Columns and labels:
Type in all cases: functional
Sitophilus granarius = experiment: Antifeedant activity against Sitophilus granarius (granary weevil) in compound treated wheat wafer disks assessed as antifeedant index by no-choice/two-choice assay
Trogoderma granarium = experiment: Antifeedant activity against Trogoderma granarium (khapra beetle) in compound treated wheat wafer disks assessed as antifeedant index by no-choice/two-choice assay
Tribolium confusum = experiment: Antifeedant activity against Tribolium confusum (confused flour beetle) in compound treated wheat wafer discs assessed as antifeedant index by no-choice/two-choice assay

Row | Structure (SMILES) | Activity (Sitophilus granarius) | Activity (Trogoderma granarium) | Activity (Tribolium confusum)
1 | C=C(C)C(=O)O[C@H]1CC(=C)[C@@H]2C[C@H](O)C(=C)[C@@H]2[C@H]2OC(=O)C(=C)[C@@H]21 [AGUERIN B] | 94.7 | 116.5 | 114.5
2 | C=C(CO)C(=O)O[C@H]1CC(=C)[C@@H]2C[C@H](O)C(=C)[C@@H]2[C@H]2OC(=O)C(=C)[C@@H]21 [CYNAROPICRIN] | 51.6 | 49.5 | 98.8
3 | C=C(CO)C(=O)O[C@H]1CC(=C)[C@@H]2C[C@H](O)[C@]3(CO3)[C@@H]2[C@H]2OC(=O)C(=C)[C@@H]21 [JANERIN] | 69 | 95 | 104
4 | COc1cc(/C=C/CO)cc(OC)c1O[C@@H]1O[C@H](CO)[C@@H](O)[C@H](O)[C@H]1O [SYRINGIN] | 134.4 | 61.7 | 125.6
